US10596150B2, “Antifungal agents” (F2G LIMITED, priority 2014, dated 2020)
In brackets after ≈: the same amount, converted by molar mass.

Tests used:
Assay in all cases: Minimum Inhibitory Concentration (MIC), RPMI medium
Format in all cases: cell-based
A. niger = conditions: Aspergillus niger, >80% growth inhibition
Protocol: (§1) Between 1 and 5 mgs of the compound were accurately weighed out into a sterile Eppendorf tube. The compound was dissolved in DMSO to give a solution containing 5 mg/mL. Tubes were stored at −20° C. until required.
(§2) On the day of testing thawed solutions were vortex mixed to ensure homogeneity. 30 μL of solution was removed and added to 570 μL of sterile water in a separate sterile Eppendorf. The thoroughly mixed solution was used to prepare a series of doubling dilutions in water, in a deep well plate. Thirteen replicate plates were prepared using a Minitrak by aspirating 20 μL from each well into eleven clear polystyrene 96 well plates.
(§3) Spores of Aspergillus and Scedosporium were harvested from cultures grown on Sabarauds agar for 5 days, and resuspended in PBS/Tween 80 to approx 1×10^7 cfu/mL. Each organism suspension was diluted in RPMI medium, containing 2% glucose and 0.135 M MOPS buffer (pH 7.0) to 0.5-2×10^4 cfu/mL. 80 μL of an organism suspension was added to each well of the plate containing drug dilutions.
(§4) This produced MIC plates with a drug range 50-0.05 mg/L and organism inocula of 1-2×10^4 cfu/mL. All plates were incubated for 24-48 h at 35° C. Growth was assessed by monitoring the optical density at 485 nm for each well. The MIC of a compound is the lowest drug concentration that inhibits growth of an organism by >80% compared with a drug free control.

A. terreus = conditions: Aspergillus terreus, >80% growth inhibition
Protocol: as §1, §2, §3, §4

A. terreus 49 = conditions: Aspergillus terreus, >80% growth inhibition
Protocol: as §1, §2, §3, §4

A. fumigatus = conditions: Aspergillus fumigatus, >80% growth inhibition
Protocol: as §1, §2, §3, §4

A. fumigatus 210 = conditions: Aspergillus fumigatus, >80% growth inhibition
Protocol: as §1, §2, §3, §4

A. flavus = conditions: Aspergillus flavus, >80% growth inhibition
Protocol: as §1, §2, §3, §4

[1] = tested on: Scedosporium prolificans 206; conditions: Lomentospora prolificans
Protocol: as §1, §2, §3, §4

[2] = tested on: Scedosporium prolificans 18389; conditions: Lomentospora prolificans
Protocol: as §1, §2, §3, §4

[3] = tested on: Scedosporium apiospermum 15848
Protocol: as §1, §2, §3, §4

[4] = tested on: Scedosporium species 15849
Protocol: as §1, §2, §3, §4

[5] = tested on: Scedosporium apiospermum 7935
Protocol: as §1, §2, §3, §4

[6] = tested on: Scedosporium apiospermum 13486
Protocol: as §1, §2, §3, §4

[7] = tested on: Scedosporium apiospermum 8353
Protocol: as §1, §2, §3, §4

[8] = tested on: Scedosporium apiospermum 4883
Protocol: as §1, §2, §3, §4

[9] = tested on: Scedosporium apiospermum 451
Protocol: as §1, §2, §3, §4

[10] = tested on: Scedosporium prolificans 6322; conditions: Lomentospora prolificans
Protocol: as §1, §2, §3, §4

SMILES | MIC (A. niger) [µg/mL] | MIC (A. terreus) [µg/mL] | MIC (A. terreus 49) [µg/mL] | MIC (A. fumigatus) [µg/mL] | MIC (A. fumigatus 210) [µg/mL] | MIC (A. flavus) [µg/mL] | MIC [1] [µg/mL] | MIC [2] [µg/mL] | MIC [3] [µg/mL] | MIC [4] [µg/mL] | MIC [5] [µg/mL] | MIC Scedosporium apiospermum 13486 [6] | MIC ([6]; Scedosporium apiospermum, 13486) [µg/mL] | MIC [7] [µg/mL] | MIC [8] [µg/mL] | MIC [9] [µg/mL] | MIC [10] [µg/mL]
[2H]C1([2H])N(c2ccc(NC(=O)C(=O)c3c(-c4ccccc4)cc(C)n3C)cc2)C([2H])([2H])C([2H])([2H])N(c2ncc(F)cn2)C1([2H])[2H] [Example 3, 2-(1,5-dimethyl-3-phenyl-1H-pyrrol-2-yl)-N-(4-(4-(5-fluoropyrimidin-2-yl)piperazin-1-yl-2,2,3,3,5,5,6,6-d8)phenyl)-2-oxoacetamide] | 0.04 to 0.06 (≈ 0.079 to 0.118 µM) | 0.04 to 0.06 (≈ 0.079 to 0.118 µM) | 0.04 to 0.06 (≈ 0.079 to 0.118 µM) | 0.04 to 0.06 (≈ 0.079 to 0.118 µM) | 0.04 to 0.06 (≈ 0.079 to 0.118 µM) | 0.04 to 0.06 (≈ 0.079 to 0.118 µM) | – | – | – | – | – | – | – | – | – | – | –
[2H]c1c([2H])c(N2CCN(c3ncc(F)cn3)CC2)c([2H])c([2H])c1NC(=O)C(=O)c1c(-c2ccccc2)cc(C)n1C [Example 4, 2-(1,5-dimethyl-3-phenyl-1H-pyrrol-2-yl)-N-(4-(4-(5-fluoropyrimidin-2-yl)piperazin-1-yl)phenyl-2,3,5,6-d4)-2-oxoacetamide] | 0.04 to 0.06 (≈ 0.0796 to 0.119 µM) | 0.04 to 0.06 (≈ 0.0796 to 0.119 µM) | 0.04 to 0.06 (≈ 0.0796 to 0.119 µM) | 0.04 to 0.06 (≈ 0.0796 to 0.119 µM) | 0.04 to 0.06 (≈ 0.0796 to 0.119 µM) | 0.04 to 0.06 (≈ 0.0796 to 0.119 µM) | – | – | – | – | – | – | – | – | – | – | –
Cc1cc(-c2ccccc2)c(C(=O)C(=O)Nc2ccc(N3CCN(c4ccccn4)CC3)c(F)c2)n1C [Ref. Example 1, 2-(1,5-Dimethyl-3-phenyl-1H-pyrrol-2-yl)-N-[3-fluoro-4-(4-pyridin-2-yl-piperazin-1-yl)-phenyl]-2-oxo-acetamide] | 0.04 to 0.06 (≈ 0.0804 to 0.121 µM) | 0.04 to 0.06 (≈ 0.0804 to 0.121 µM) | 0.04 to 0.06 (≈ 0.0804 to 0.121 µM) | 0.04 to 0.06 (≈ 0.0804 to 0.121 µM) | 0.04 to 0.06 (≈ 0.0804 to 0.121 µM) | > 0.06 | – | – | – | – | – | – | – | – | – | – | –
Cc1cc(-c2ccccc2)c(C(=O)C(=O)Nc2ccc(N3CCN(c4ccccn4)CC3)cc2F)n1C [Ref. Example 2, 2-(1,5-Dimethyl-3-phenyl-1H-pyrrol-2-yl)-N-[2-fluoro-4-(4-pyridin-2-yl-piperazin-1-yl)-phenyl]-2-oxo-acetamide] | 0.04 to 0.06 (≈ 0.0804 to 0.121 µM) | 0.04 to 0.06 (≈ 0.0804 to 0.121 µM) | 0.04 to 0.06 (≈ 0.0804 to 0.121 µM) | 0.04 to 0.06 (≈ 0.0804 to 0.121 µM) | 0.04 to 0.06 (≈ 0.0804 to 0.121 µM) | 0.04 to 0.06 (≈ 0.0804 to 0.121 µM) | – | – | – | – | – | – | – | – | – | – | –
Cc1cc(C)nc(N2CCN(c3ccc(NC(=O)C(=O)c4c(-c5ccccc5)cc(C)n4C)cc3C)CC2)c1 [Ref. Example 3, 2-(1,5-Dimethyl-3-phenyl-1H-pyrrol-2-yl)-N-{4-[4-(4,6-dimethyl-pyridin-2-yl)-piperazin-1-yl]-3-methyl-phenyl}-2-oxo-acetamide] | 0.04 to 0.06 (≈ 0.0767 to 0.115 µM) | 0.04 to 0.06 (≈ 0.0767 to 0.115 µM) | 0.04 to 0.06 (≈ 0.0767 to 0.115 µM) | 0.04 to 0.06 (≈ 0.0767 to 0.115 µM) | 0.04 to 0.06 (≈ 0.0767 to 0.115 µM) | 0.04 to 0.06 (≈ 0.0767 to 0.115 µM) | – | – | – | – | – | – | – | – | – | – | –
Cc1ccnc(N2CCN(c3ccc(NC(=O)C(=O)c4c(-c5ccccc5)cc(C)n4C)cc3)CC2)c1 [Ref. Example 4, 2-(1,5-Dimethyl-3-phenyl-1H-pyrrol-2-yl)-N-{4-[4-(4-methyl-pyridin-2-yl)-piperazin-1-yl]-phenyl}-2-oxo-acetamide] | 0.04 to 0.06 (≈ 0.081 to 0.122 µM) | 0.04 to 0.06 (≈ 0.081 to 0.122 µM) | 0.04 to 0.06 (≈ 0.081 to 0.122 µM) | 0.04 to 0.06 (≈ 0.081 to 0.122 µM) | 0.04 to 0.06 (≈ 0.081 to 0.122 µM) | 0.04 to 0.06 (≈ 0.081 to 0.122 µM) | – | – | – | – | – | – | – | – | – | – | –
Cc1cccc(N2CCN(c3ccc(NC(=O)C(=O)c4c(-c5ccccc5)cc(C)n4C)cc3)CC2)n1 [Ref. Example 5, 2-(1,5-Dimethyl-3-phenyl-1H-pyrrol-2-yl)-N-{4-[4-(6-methyl-pyridin-2-yl)-piperazin-1-yl]-phenyl}-2-oxo-acetamide] | > 0.06 | 0.04 to 0.06 (≈ 0.081 to 0.122 µM) | 0.04 to 0.06 (≈ 0.081 to 0.122 µM) | 0.04 to 0.06 (≈ 0.081 to 0.122 µM) | 0.04 to 0.06 (≈ 0.081 to 0.122 µM) | 0.04 to 0.06 (≈ 0.081 to 0.122 µM) | – | – | – | – | – | – | – | – | – | – | –
Cc1cc(-c2ccccc2)c(C(=O)C(=O)Nc2ccc(N3CCN(c4ccccn4)CC3)cc2)n1C [Ref. Example 6, 2-(1,5-Dimethyl-3-phenyl-1H-pyrrol-2-yl)-2-oxo-N-[4-(4-pyridin-2-yl-piperazin-1-yl)-phenyl]-acetamide] | > 0.06 | 0.04 to 0.06 (≈ 0.0834 to 0.125 µM) | 0.04 to 0.06 (≈ 0.0834 to 0.125 µM) | 0.04 to 0.06 (≈ 0.0834 to 0.125 µM) | 0.04 to 0.06 (≈ 0.0834 to 0.125 µM) | 0.04 to 0.06 (≈ 0.0834 to 0.125 µM) | > 0.06 | > 0.06 | > 0.06 | > 0.06 | > 0.06 | F (a grade of F represents an MIC of greater than 0.06 mg/L) | > 0.06 | > 0.06 | > 0.06 | > 0.06 | > 0.06
Cc1cc(C)nc(N2CCN(c3ccc(NC(=O)C(=O)c4c(-c5ccccc5)cc(C)n4C)cc3O)CC2)c1 [Ref. Example 7, 2-(1,5-Dimethyl-3-phenyl-1H-pyrrol-2-yl)-N-{4-[4-(4,6-dimethyl-pyridin-2-yl)-piperazin-1-yl]-3-hydroxy-phenyl}-2-oxo-acetamide] | > 0.06 | > 0.06 | > 0.06 | > 0.06 | > 0.06 | 0.04 to 0.06 (≈ 0.0764 to 0.115 µM) | – | – | – | – | – | – | – | – | – | – | –
Cc1cc(C)nc(N2CCN(c3ccc(NC(=O)C(=O)c4c(-c5ccccc5)cc(C)n4C)c(Cl)c3)CC2)c1 [Ref. Example 8, N-{2-Chloro-4-[4-(4,6-dimethyl-pyridin-2-yl)-piperazin-1-yl]-phenyl}-2-(1,5-dimethyl-3-phenyl-1H-pyrrol-2-yl)-2-oxo-acetamide] | 0.04 to 0.06 (≈ 0.0738 to 0.111 µM) | 0.04 to 0.06 (≈ 0.0738 to 0.111 µM) | 0.04 to 0.06 (≈ 0.0738 to 0.111 µM) | 0.04 to 0.06 (≈ 0.0738 to 0.111 µM) | 0.04 to 0.06 (≈ 0.0738 to 0.111 µM) | 0.04 to 0.06 (≈ 0.0738 to 0.111 µM) | – | – | – | – | – | – | – | – | – | – | –
Cc1cc(C)nc(N2CCN(c3ccc(NC(=O)C(=O)c4c(-c5ccccc5)cc(C)n4C)cc3Cl)CC2)c1 [Ref. Example 9, N-{3-Chloro-4-[4-(4,6-dimethyl-pyridin-2-yl)-piperazin-1-yl]-phenyl}-2-(1,5-dimethyl-3-phenyl-1H-pyrrol-2-yl)-2-oxo-acetamide] | 0.04 to 0.06 (≈ 0.0738 to 0.111 µM) | 0.04 to 0.06 (≈ 0.0738 to 0.111 µM) | 0.04 to 0.06 (≈ 0.0738 to 0.111 µM) | 0.04 to 0.06 (≈ 0.0738 to 0.111 µM) | 0.04 to 0.06 (≈ 0.0738 to 0.111 µM) | 0.04 to 0.06 (≈ 0.0738 to 0.111 µM) | – | – | – | – | – | – | – | – | – | – | –
